According to patent US20100196342A1, “MOOD, MEMORY AND COGNITIVE FUNCTION WITH PYRIDOXAL 5'-PHOSPHATE” (priority 2007, published 2010):

Tests used:
[1] = test system: Human males aged between 65 and 90; experiment: Associative learning task (colour-number association recall) in aged males; format: in vivo
Procedure: Human males aged between 65 and 90 are separated into four random groups: control, low dose of P5P (100 mg/day), medium dose of P5P (250 mg/day), and high dose of P5P (750 mg/day). All dosages are administered orally for 3 weeks before subjecting the patients to an associative learning task.
The patients are subjected to an associative learning task, as follows. Briefly, patients are comfortably seated in front of a computer. Patients are asked to learn the associations between six colors and the numbers 1-6, using trial and error. Subjects are then required to recall this association, a defined period of time after the associations are learned. Tests are repeated, with the defined period of time increasing, until the patients are no longer able to associate the colors with the numbers.

healthy subjects = experiment: Phase I single ascending dose study, safety and tolerance; format: in vivo, human; conditions: single oral dosages up to 4000 mg
Procedure: A Phase I, single center, single-dose, open-label, sequential ascending dose study to evaluate the safety and tolerance of pyridoxal-5′-phosphate, in an enteric-coated tablet, following a single dose of 250 mg, 750 mg, 1000 mg, and 4000 mg in healthy subjects under fasting conditions was conducted.
A total of 32 healthy, adult subjects signed the study-specific Informed Consent Form and were confined in the clinical study unit; of these subjects, 24 (6 subjects in each dose level; 3 males and 3 females) were dosed and were enrolled in the study; all of these enrolled subjects completed the study. Subjects were confined to the SFBC Anapharm Clinical Research Facility from at least 12 hours prior to drug administration until after the 24.0-hour post-dose blood draw.
Subjects enrolled in this study were members of the community at large. […] All participating subjects were judged eligible for the study when assessed against the inclusion and exclusion criteria. […]

P2 purinoceptors = conditions: cited from earlier work
[2] = test system: Individuals diagnosed with mild depression; experiment: Assessment of level of depression by depression inventory scales and DSM-IV; format: in vivo, human
Procedure: Individuals diagnosed with mild depression are divided into four groups at random: control, low dose of P5P (100 mg/day), medium dose of P5P (250 mg/day), and high dose of P5P (750 mg/day). All dosages are administered orally for 3 weeks.
The level of depression of the individuals is assessed, both before, and after treatment, using conventional methodologies. These include completion of several depression inventory questionnaire scales including the Cornell Scale for Depression in Dementia, Centre for Epidemiologic Studies Depression Scale, The Geriatric Depression Scale (Short Version), Beck Depression Inventory and the Zung Self-Rating Depression Scale as well as diagnosis by a trained professional according to the DSM-IV. These questionnaires measure depression through questions related to appetite, sadness, worthlessness/inadequacy, concentration, exhaustion, failure, retardation, socialization, isolation, anxiety, irritability, agitation, loss of interest, lack of energy, diurnal mood variation, insomnia, suicidal thoughts, low self-esteem, pessimism, mood congruent delusions, satisfaction, withdrawal, fulfillment, mood, fear, guilt, self-accusations, somatic preoccupation and loss of libido.

healthy people = conditions: U.S. National Academy of Sciences recommendation; cited from earlier work
males, ages 70-79 years = conditions: 20 mg daily for 3 months; cited from earlier work
[3] = 250 mg/day vs 750 mg/day orally for 3 weeks
[4] = P5P 100, 250 or 750 mg/day orally for 3 weeks

## Cc1ncc(COP(=O)(O)O)c(C=O)c1O [P5P, 3-hydroxy-2-methyl-5-[(phosphonooxy)methyl]-4-pyridine-carboxaldehyde]
[1]; [3]
  associative learning and memory, medium vs high dose group: no significant difference
[1]; [4]
  time after which the number-colour association can be recalled, vs control patients: significantly longer time
Healthy subjects
  tolerability (side effects, evidence of toxicity): well tolerated
P2 purinoceptors
  effect on ATP induced calcium ion influx into cells: inhibits
[2]; [3]
  level of depression, medium vs high dose group: not significantly different
[2]; 250 and 750 mg/day vs 100 mg/day orally for 3 weeks
  level of depression, medium and high dose groups vs low dose group: significantly less depressed
[2]; [4]
  level of depression vs control individuals: significantly less depressed

## Cc1ncc(CO)c(CO)c1O [pyridoxine]
Healthy people
  Tolerable Upper Intake Level: 100 mg

## vitamin B6
males, ages 70-79 years
  information storage vs matched placebo group: improved information storage
